# System: α2-subtype of the human α-adrenergic receptor
# Experiment: SPA assay, affinity for the α2-subtype of the human α-adrenergic receptor
# Assay type: binding
# Conditions: at a concentration of 10 μM
# Description: The affinity for the α2-subtype of the human α-adrenergic receptor was determined by means of a SPA assay conventionally used for high throughput screening as described in John P. Devlin, High Throughput Screening, Marcel Dekker Inc. 1997, pp. 307 to 316. This literature is introduced here as a reference and thus forms part of the disclosure. At a concentration of 10 μM, the following affinities for the listed examples were determined: […]
row,SMILES,"α2-affinity, 10 μM [%]"
1,"FC(F)(F)c1ccc2nc(-c3ccco3)c(NC3CCCCC3)n2c1 [Example 26, cyclohexyl-(2-furan-2-yl-6-trifluoromethylimidazo[1,2-a]pyridin-3-yl)-amine]",70
2,"Cc1cc(C)n2c(NC3CCCCC3)c(C)nc2c1 [Example 19, cyclohexyl-(2,5,7-trimethylimidazo[1,2-a]pyridin-3-yl)-amine]",81
3,"COC(=O)CNc1c(C)nc2c(OCc3ccccc3)cccn12 [Example 31, (8-benzyloxy-2-methylimidazo[1,2-a]pyridin-3-ylamino)-acetic acid methyl ester]",61
4,"Cc1ccn2c(NC(C)(C)CC(C)(C)C)c(C)nc2c1 [Example 21, (2,7-dimethylimidazo[1,2-a]pyridin-3-yl)-(1,1,3,3-tetramethylbutyl)-amine]",109
5,"COC(=O)CNc1c(C2CCCCC2)nc2c(OCc3ccccc3)cccn12 [Example 30, (8-benzyloxy-2-cyclohexylimidazo[1,2-a]pyridin-3-ylamino)-acetic acid methyl ester]",60
6,"[C-]#[N+]CCCCCCNc1c(-c2ccccc2OC)nc2ccc(C)cn12 [Example 25, (6-isocyanohexyl)-[2-(2-methoxyphenyl)-6-methyl-imidazo[1,2-a]pyridin-3-yl]-amine]",51
7,[C-]#[N+]CCCCCCNc1c(C2CCCCC2)nc2cccc(C)n12 [Example 16],67
8,"[C-]#[N+]CCCCCCNc1c(-c2ccc(OC)c(OC)c2)nc2ccc(C)cn12 [Example 20, [2-(3,4-dimethoxyphenyl)-6-methylimidazo[1,2-a]pyridin-3-yl]-(6-isocyanohexyl)-amine]",85
9,"Cc1nc2c(C)cccn2c1NC(C)(C)CC(C)(C)C [Example 22, (2,8-dimethyl-imidazo[1,2-a]pyridin-3-yl)-(1,1,3,3-tetramethylbutyl)-amine]",69
10,"CC(=O)N(c1c(-c2ccco2)nc2ccc(C(F)(F)F)cn12)C1CCCCC1 [Example 34, N-cylcohexyl-N-(2-furan-2-yl-6-trifluoromethylimidazo[1,2-a]pyridin-3-yl)-acetamide]",72
11,"CC(=O)N(c1c(-c2ccco2)nc2c(Cl)cc(Cl)cn12)C1CCCCC1 [Example 33, N-cylcohexyl-N-(6,8-dichloro-2-furan-2-yl-imidazo[1,2-a]pyridin-3-yl)-acetamide]",73
12,"Cc1ccc2nc(C)c(NC(C)(C)CC(C)(C)C)n2c1 [Example 17, (2,6-dimethylimidazo[1,2-a]pyridin-3-yl)-(1,1,3,3-tetramethylbutyl)-amine]",65
13,"Cc1cc(C)n2c(NC(C)(C)CC(C)(C)C)c(C)nc2c1 [Example 23, (1,1,3,3-tetramethylbutyl)-(2,5,7-trimethylimidazo[1,2-a]pyridin-3-yl)-amine]",97
14,"[C-]#[N+]CCCCCCNc1c(-c2ccc(OC)c(OC)c2)nc2cc(C)ccn12 [Example 24, [2-(3,4-dimethoxyphenyl)-7-methylimidazo[1,2-a]pyridin-3-yl]-(6-isocyanohexyl)-amine]",75
15,"Cc1ccn2c(NC3CCCCC3)c(C)nc2c1 [Example 18, cyclohexyl-(2,7-dimethylimidazo[1,2-a]pyridin-3-yl)-amine]",74
16,"Cc1nc2c(OCc3ccccc3)cccn2c1NC(C)(C)CC(C)(C)C [Example 29, (8-benzyloxy-2-methylimidazo[1,2-a]pyridin-3-yl)-(1,1,3,3-tetramethylbutyl)-amine]",100
17,"CC(=O)N(c1c(C2CCCCC2)nc2c(OCc3ccccc3)cccn12)C1CCCCC1 [Example 35, N-(8-benzyloxy-2-cyclohexylimidazo[1,2-a]pyridin-3-yl)-N-cyclohexyl-acetamide]",75
18,"CCCCNc1c(C2CCCCC2)nc2cccc(CCC)n12 [Example 32, Butyl-(2-cyclohexyl-5-propylimidazo[1,2-a]pyridin-3-yl)-amine]",61
